# Measurements reported in the NIST ThermoML archive (doi:10.1016/j.jct.2014.07.026).
# Numbers after ± are expanded uncertainties.
# Assay: mn = molality of the nth substance listed, in mol/kg
# Details: 298.15 K; 100 kPa; Liquid; Frequency=2 MHz; Linear variable-path acoustic interferometer; m2 = 0
row,Structure (SMILES),speed of sound [m/s]
1,O [water] + CC(C)[C@H](N)C(=O)[O-].CCCCn1cc[n+](C)c1,1497.6 ± 2.5
2,O [water] + CC(C)C[C@H](N)C(=O)[O-].CCCCn1cc[n+](C)c1,1497.6 ± 2.5
3,O [water] + CCCCn1cc[n+](C)c1.CC[C@H](C)[C@H](N)C(=O)[O-],1497.8 ± 2.5

# More lines, now with the values ahead:
row,speed of sound [m/s],Structure (SMILES)
1,1497.6 ± 2.5,O [water] + CCCCn1cc[n+](C)c1.NCC(=O)[O-]
2,1497.8 ± 2.5,O [water] + CCCCn1cc[n+](C)c1.C[C@H](N)C(=O)[O-]

# Assay: not given
# Details: 298.15 K; 100 kPa; Liquid; Frequency=2 MHz; Linear variable-path acoustic interferometer
row,speed of sound [m/s],Structure (SMILES)
1,1497.7 ± 2.5,O [water]
